# Reference: ChEMBL document CHEMBL4431381 (Bioorg Med Chem, 2016)
# pEC50: −log10 of the molar value. Active and inactive are the calls of the source. No cut-off for these calls is given here.
# Key:
# [1] = target: T1, Tumor necrosis factor receptor superfamily member 16 (Mus musculus) (UniProt Q9Z0W1); assay: (§1) Activation of p75NTR in C57BL/6 mouse brain assessed as suppression of carbachol-mediated persistant firing of entorhinal cortex after 15 mins by current-clamp technique; type: tissue-based
# T1 sequence (whole entry): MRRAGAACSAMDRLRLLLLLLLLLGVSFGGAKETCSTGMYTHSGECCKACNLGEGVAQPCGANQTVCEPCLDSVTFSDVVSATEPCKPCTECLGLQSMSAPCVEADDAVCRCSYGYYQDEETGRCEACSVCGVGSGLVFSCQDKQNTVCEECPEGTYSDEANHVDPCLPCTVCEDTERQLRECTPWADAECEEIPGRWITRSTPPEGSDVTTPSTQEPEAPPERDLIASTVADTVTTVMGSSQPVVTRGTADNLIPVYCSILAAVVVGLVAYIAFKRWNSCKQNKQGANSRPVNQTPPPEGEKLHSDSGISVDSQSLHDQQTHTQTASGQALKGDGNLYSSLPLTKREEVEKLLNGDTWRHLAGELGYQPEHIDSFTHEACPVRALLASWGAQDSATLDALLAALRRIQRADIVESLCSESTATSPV
# [2] = target: T2, Tumor necrosis factor receptor superfamily member 16 (Mus musculus, UniProt Q9Z0W1); assay: as §1; type: tissue-based
# T2 sequence (Q9Z0W1 whole entry): T1 sequence (whole entry)
# [3] = Hydrophilicity, logD of the compound; type: physicochemical; conditions: octanol/water
# Mus musculus = organism: Mus musculus; assay: Effect on carbachol-mediated persistant firing of entorhinal cortex in p75NTR deficient C57BL/6 mouse brain at 10 nM after 15 mins by current-clamp technique; type: functional
# [4] = target: T3, Tumor necrosis factor receptor superfamily member 16 (Rattus norvegicus) (UniProt P07174); assay: Binding affinity to p75NTR in Long-Evans rat brain at 300 uCi incubated for 40 mins followed by compound wash out for 10 secs and addition of compound for 2 hrs by autoradiographic analysis; type: tissue-based; conditions: tested as the 11C-labelled form
# T3 sequence (whole entry): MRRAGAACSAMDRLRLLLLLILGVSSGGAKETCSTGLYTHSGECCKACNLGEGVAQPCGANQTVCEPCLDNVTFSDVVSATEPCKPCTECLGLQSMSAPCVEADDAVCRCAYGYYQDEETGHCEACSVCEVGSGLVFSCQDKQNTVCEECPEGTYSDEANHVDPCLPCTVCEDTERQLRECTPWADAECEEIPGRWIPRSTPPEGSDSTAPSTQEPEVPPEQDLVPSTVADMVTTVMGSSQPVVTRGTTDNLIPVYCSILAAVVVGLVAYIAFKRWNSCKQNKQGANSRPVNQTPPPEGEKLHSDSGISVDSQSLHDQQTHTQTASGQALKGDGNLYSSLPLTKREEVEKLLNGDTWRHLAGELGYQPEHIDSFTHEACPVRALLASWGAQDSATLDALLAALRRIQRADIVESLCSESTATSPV
# [5] = Drug uptake in C57BL/6 mouse brain incubated for 40 mins followed by compound wash out for 10 secs and addition of compound for 30 to 60 mins by autoradiographic analysis; type: ADME, tissue-based
# [6] = Drug uptake in C57BL/6 mouse brain incubated for 40 mins followed by compound wash out for 10 secs and addition of compound for 30 to 60 mins in presence of 10 uM LM11A-24 by autoradiographic analysis; type: ADME, tissue-based
# [7] = Drug uptake in C57BL/6 mouse brain incubated for 40 mins followed by compound wash out for 10 secs and addition of compound for 30 to 60 mins in presence of 400 uM LM11A-24 by autoradiographic analysis; type: ADME, tissue-based
# [8] = Drug uptake in C57BL/6 mouse DRG neurons incubated for 40 mins measured after 30 to 60 mins by autoradiographic analysis; type: ADME, cell-based; conditions: drg neuron
# [9] = Drug uptake in C57BL/6 mouse DRG neurons incubated for 40 mins followed by compound wash out for 10 secs and addition of compound for 30 to 60 mins by autoradiographic analysis; type: ADME, cell-based; conditions: drg neuron
# [10] = Drug uptake in Long-Evans rat brain at 0.4 mCi, iv through bolus administration by PET analysis; type: ADME, organism-based; conditions: in vivo
# [11] = Drug uptake in Long-Evans rat bladder at 0.4 mCi, iv through bolus administration by PET analysis; type: ADME, organism-based, Urinary bladder; conditions: in vivo
SMILES,Activity [1],pEC50 [2],logD [3],Activity (Mus musculus),Activity [4],Drug uptake [5],Drug uptake [6],Drug uptake [7],Drug uptake [8],Drug uptake [9],Drug uptake [10],Drug uptake [11]
CN(C)CCCNC(=O)Cn1cnc2c1c(=O)n(C)c(=O)n2C,Dose-dependent effect,> 8.00,-3,inactive,inactive,,,,,,,
CN([11CH3])CCCNC(=O)Cn1cnc2c1c(=O)n(C)c(=O)n2C,,,,,,Active,Active,Active,Not Active,Not Active,Not Active,Active
